Laboratory results: patent US11590131B2, “Compositions and methods for treating galactosemia” (Applied Therapeutics, Inc., priority 2017, dated 2023)
“Also recorded” adds a separate entry of the source.

Legend:
Assay type in all cases: in vivo, rat
[1] = system: GALT-null rats; test: Digital photographic quantification of cataracts in GALT null rats
Description: Rats, with impaired GALT activity due to genetic modification (GALT null), were used as a model of galactosemia. This rat model mirrors human classic galactosemia in some important ways. The rats develop physical characteristics including cataracts follow exposure to galactose, growth abnormalities, and neurological/cognitive abnormalities, which mirror abnormalities in human patients and can be quantified. The rats also have biochemical characteristics that mirror human disease including elevated levels of galactose and galactose metabolites, including galactitol and Gal1), in blood and tissues. Rats were generated from heterozygote crosses (heterozygous M3 GALT null strain representing classic galactosemia). […] Just before each feeding an aliquot of drug was re-suspended in formula, mixed well, and pipetted into individual tubes to be fed to the pups (volume calculated per pup weight measured that morning). […] In the first part of the study, cataracts were scored visually by a blinded rater on a 3 point scale, with zero being no cataracts present (absent), 1 being mild, 2 being moderate and 3 being severe cataracts present. In the second part of the study, eyes were dissected after euthanization, photographed via digital camera, and cataracts were quantified via software

[2] = system: GALT-null rats; test: Qualitative visual scoring of cataracts (0-3 scale) in GALT null rats
Description: Rats, with impaired GALT activity due to genetic modification (GALT null), were used as a model of galactosemia. This rat model mirrors human classic galactosemia in some important ways. The rats develop physical characteristics including cataracts follow exposure to galactose, growth abnormalities, and neurological/cognitive abnormalities, which mirror abnormalities in human patients and can be quantified. The rats also have biochemical characteristics that mirror human disease including elevated levels of galactose and galactose metabolites, including galactitol and Gal1), in blood and tissues. Rats were generated from heterozygote crosses (heterozygous M3 GALT null strain representing classic galactosemia). […] Aldose reductase inhibitor (Compound A or Compound B), suspended in Gerber formula, was administered orally at about 12-hour intervals (BID) at 1 mg inhibitor/gram pup weight (=1000 mg/kg) for each dose. Before use, drug was stored at −20° C. in a bottle or tubes wrapped in aluminum foil. Just before each feeding an aliquot of drug was re-suspended in formula, mixed well, and pipetted into individual tubes to be fed to the pups (volume calculated per pup weight measured that morning). All placebo and drug tubes of formula were warmed to 37° C. immediately before feeding. Placebo and drug were fed to pups by hand using a syringe and tubing. Pups receiving drug also were fed a small additional volume of Gerber formula that had been used to wash the tube and syringe immediately after the drug feeding. To motivate eating, pups were removed from their mother (to prevent nursing) and maintained in nests in a humidified incubator for about 2 hours at 35-37° C. prior to each feeding. […] In the first part of the study, cataracts were scored visually by a blinded rater on a 3 point scale, with zero being no cataracts present (absent), 1 being mild, 2 being moderate and 3 being severe cataracts present. In the second part of the study, eyes were dissected after euthanization, photographed via digital camera, and cataracts were quantified via software

[3] = system: GALT-null rats; test: Metabolite levels (galactitol, galactose, Gal1P) by HPLC in liver, brain and plasma of GALT null rats
Description: Rats, with impaired GALT activity due to genetic modification (GALT null), were used as a model of galactosemia. This rat model mirrors human classic galactosemia in some important ways. The rats develop physical characteristics including cataracts follow exposure to galactose, growth abnormalities, and neurological/cognitive abnormalities, which mirror abnormalities in human patients and can be quantified. The rats also have biochemical characteristics that mirror human disease including elevated levels of galactose and galactose metabolites, including galactitol and Gal1), in blood and tissues. Rats were generated from heterozygote crosses (heterozygous M3 GALT null strain representing classic galactosemia). […] Aldose reductase inhibitor (Compound A or Compound B), suspended in Gerber formula, was administered orally at about 12-hour intervals (BID) at 1 mg inhibitor/gram pup weight (=1000 mg/kg) for each dose. Before use, drug was stored at −20° C. in a bottle or tubes wrapped in aluminum foil. Just before each feeding an aliquot of drug was re-suspended in formula, mixed well, and pipetted into individual tubes to be fed to the pups (volume calculated per pup weight measured that morning). All placebo and drug tubes of formula were warmed to 37° C. immediately before feeding. Placebo and drug were fed to pups by hand using a syringe and tubing. Pups receiving drug also were fed a small additional volume of Gerber formula that had been used to wash the tube and syringe immediately after the drug feeding. To motivate eating, pups were removed from their mother (to prevent nursing) and maintained in nests in a humidified incubator for about 2 hours at 35-37° C. prior to each feeding. Separate syringes were used for placebo and drug. Pups were wrapped in fleece during feeding, which lasted about 2-5 minutes each. Lysates for metabolite analysis were prepared as follows: 50-100 mg pieces of previously frozen liver or brain were homogenized by grinding for 30 seconds using a Teflon micropestle and handheld micropestle motor (Kimble Chase Life Science and Research Products LLC) in 125 μl ice-cold HPLC-grade water. Metabolites were separated and quantified by HPLC (See, e.g., Daenzer, et al. Dis. Model Mech. 2016, 9(11):1375-1382)). Galactitol, inositol, and glucose were quantified using the same HPLC conditions described to quantify galactose by (Daenzer, 2016). Metabolite levels were normalized to the total area of peaks detected by the relevant column and elution run for that sample, minus the peaks that most distinguished homozygous M3/M3 samples from controls. Specifically, metabolites separated on the MA1 column (galactitol, inositol, galactose and glucose) were normalized to total peak area minus galactose and galactitol, and metabolites separated on the PA10 column (galactose-1P) were normalized to total peak area minus galactose and galactose-1P.

O=C(O)Cc1nn(Cc2cc3cc(C(F)(F)F)ccc3s2)c(=O)c2cscc12 [Compound B]
digital quantitative analysis of cataracts (score) ([1]; GALT null rats, day 22 of life, FIG. 2B): the same score as wild type rats
qualitative assessment of cataracts (0-3 scale) ([2]; day 10 of life, FIG. 2C): had cataracts
qualitative assessment of cataracts (0-3 scale) ([2]; day 22 of life, placebo average severity 1.5, FIG. 2D): did not have cataracts; also recorded: cataracts were not present
galactitol levels in liver, brain and plasma ([3]; day 10 of life, FIG. 3A): normal or near normal levels
galactose levels ([3]; day 10 of life, FIG. 3B): did not further increase
Gal1P levels ([3]; day 10 of life, FIG. 3C): did not further increase

O=C(O)Cc1nn(Cc2nc3cc(C(F)(F)F)ccc3s2)c(=O)c2nccnc12 [Compound A]
cataracts (qualitative initial study and digitally quantified follow-on study) ([1]; GALT null rats, 1,000 mg/kg BID or 250 mg/kg BID in follow-on study): reduced cataracts
qualitative assessment of cataracts (scale of 0-3) ([2]; day nine of life, versus placebo, FIG. 2A): no cataracts
reduction of brain galactitol levels compared to placebo ([3]; day 9): 40%
reduction of liver galactitol levels compared to placebo ([3]; day 9): 87%
reduction of brain galactitol levels compared to placebo ([3]; day 15-18): 57%
reduction of liver galactitol levels compared to placebo ([3]; day 15-18): 57%
